Reference: patent US10323019B2, “Pyrazolylaminobenzimidazole derivatives as JAK inhibitors” (Eli Lilly and Company, priority 2016, dated 2019)
Read-outs that look alike come from different tables or passages of the source.

Experiments:
[1] = molecular target: JAK1 (Homo sapiens (Human), UniProt P23458); assay: AlphaScreen SureFire p-STAT3-(p-Tyr705)-IL6-TF-1-JAK1 cell-based assay; conditions: TF-1 cells, IL6 30 ng/mL, pSTAT3
Description: AlphaScreen SureFire Protocol p-STAT3-(p-Tyr705)-IL6-TF-1-JAK1 Cell-Based Assay
The JAK1 cell based assay described below is used to determine the JAK1 cellular potency of test compounds.
Cell preparation: Starve TF-1 cells in DMEM medium with 0.5% […] and 1× Pen/Strep at 37° C. Plate 100K cells per well in BD 96 well black plates with clear bottoms. Maintain the plates at RT for 30-60 minutes before incubating overnight at 37° C., and 5% CO2. Count cells using Vi-Cell counter, using a cell suspension at […] and plated 100 μL/well in […] Biocoat plates (Catalog #354640).
Test compound preparation and treatment: Prepare compounds at 1:3 serial dilutions in DMSO and further dilute into the medium. Test compounds in a range of 10 point concentrations from 20,000 to 1 nM. Add diluted compound to corresponding cell plates. Incubate the plates at 37° C. for 20 min. Add IL6 solution at the final concentration 30 ng/mL to corresponding cell plates and continue to incubate at 37° C. for 30 min. Remove media and add 50 μL 1× lysis buffer to each well.
pSTAT3 detection: Perform the following steps sequentially: make acceptor mix (activation buffer/reaction buffer/acceptor beads); transfer 4 μL lysate from 96 well plates to 384 well-Proxiplates; add 5 μL acceptor mix to 384 proxiplate plate(s) and seal plates with aluminum seal; shake 1-2 minutes on plate shaker; incubate plate at RT for 2 hr with gentle shaking; make donor mix (donor beads in dilution buffer); add 2 μL donor mix to assay plates; seal plates with aluminum seal; shake 1-2 minutes on plate shaker; incubate at RT for 2 hr with gentle shaking; read plate with Envision; protocol AlphaScreen Surefire 384.

[2] = molecular target: JAK2 (Homo sapiens (Human), UniProt O60674); assay: Human whole blood assay: pSTAT5 (JAK2) in monocytes, GM-CSF stimulated; format: cell-based; conditions: pSTAT5 in CD4Low CD33Hi monocytes
Sequence of JAK2 (Homo sapiens (Human), UniProt O60674) (O60674 whole entry): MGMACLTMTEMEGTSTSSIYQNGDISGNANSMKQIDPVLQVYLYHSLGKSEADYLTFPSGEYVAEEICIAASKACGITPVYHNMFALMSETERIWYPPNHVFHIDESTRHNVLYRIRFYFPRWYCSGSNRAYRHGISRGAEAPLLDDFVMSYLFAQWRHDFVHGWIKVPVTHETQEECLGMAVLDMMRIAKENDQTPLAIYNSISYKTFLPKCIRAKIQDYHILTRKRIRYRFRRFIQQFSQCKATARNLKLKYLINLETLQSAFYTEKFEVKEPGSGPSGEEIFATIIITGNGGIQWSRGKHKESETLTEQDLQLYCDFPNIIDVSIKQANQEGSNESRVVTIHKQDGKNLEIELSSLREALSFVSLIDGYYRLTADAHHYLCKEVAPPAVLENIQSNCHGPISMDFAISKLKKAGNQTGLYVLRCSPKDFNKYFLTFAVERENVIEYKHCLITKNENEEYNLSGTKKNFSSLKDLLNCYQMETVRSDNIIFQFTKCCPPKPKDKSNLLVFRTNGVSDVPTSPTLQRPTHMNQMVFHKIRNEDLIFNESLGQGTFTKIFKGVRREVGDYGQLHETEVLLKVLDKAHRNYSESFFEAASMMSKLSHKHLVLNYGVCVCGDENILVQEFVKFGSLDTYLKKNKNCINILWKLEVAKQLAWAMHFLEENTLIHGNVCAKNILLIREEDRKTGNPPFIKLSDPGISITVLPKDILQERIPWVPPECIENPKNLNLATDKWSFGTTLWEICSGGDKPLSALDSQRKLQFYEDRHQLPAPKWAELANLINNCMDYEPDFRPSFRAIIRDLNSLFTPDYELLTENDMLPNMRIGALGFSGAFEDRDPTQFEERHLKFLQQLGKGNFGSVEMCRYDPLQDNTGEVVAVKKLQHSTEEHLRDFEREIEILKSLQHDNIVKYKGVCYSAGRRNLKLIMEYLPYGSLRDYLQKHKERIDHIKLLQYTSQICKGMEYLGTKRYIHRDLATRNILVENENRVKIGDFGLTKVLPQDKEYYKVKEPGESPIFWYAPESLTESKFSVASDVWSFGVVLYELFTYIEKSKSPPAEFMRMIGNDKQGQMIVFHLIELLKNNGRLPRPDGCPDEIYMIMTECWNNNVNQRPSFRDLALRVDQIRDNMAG
Excerpt: Human Whole Blood Assays: Determination of pSTAT3 (JAK1) and pSTAT5 (JAK2) in Lymphocytes and Monocytes
Human whole blood (HWB) assays were developed and validated to determine the JAK1 and JAK2 selectivity of test compounds.
Dilute the test compounds, 10 points, (1:3) in DMSO 100% and a step down in PBS+0.1% BSA. Use Tofacitinib as a reference compound in each plate, as well as a maximum signal (stimulated wells) and a minimum signal (no stimulated wells) in order to normalize data. Obtain a pool of HWB from 4 different healthy donors. Plate the blood in a 96 well plate using a Tecan Evo 96w and incubate with test compounds for 1 h at RT. After this time of incubation, stimulate HWB with both IL6 (206-IL, R&D System) and GM-CSF (PHC2015, Life Technologies) for 15 more minutes. Add a viability dye (65-0865, eBiosicience) (1:1000) using a Tecan Evo 96w (5×mix).
The final concentrations in the assay are the following: 100 (μM for compounds, 50 μM for Tofacitinib, 0.1 μg/mL IL6, 0.038 μg/mL GM-CSF and 1% DMSO. Lyse and fix HWB using a Lyse/fix buffer (558049, Becton Dickinson) by adding 900 μL of lysis buffer using Tecan Evo 96w (mix 10× high speed). Incubate HWB in bath at 37° C. for 10 minutes. Centrifuge HWB at 500 G, 8 min and discard supernatant. Add cold MeOH using a Tecan Exo 96w in order to permeabilize cells. Incubate blood cells on ice during 30 min. After this, wash cells 2× using Staining buffer (554656, Becton Dickinson), spin at 3000 rpm, 2 min. discard supernatant, and add the following antibodies: Anti-Human CD4 PE, 1:100 (12-0048, eBioscience), Anti-Human CD33 eFluor® 450, 1:50 (48-0337, eBioscience), Phospho-STAT5 (Tyr694) (C71E5) Rabbit mAb, 1:100 (Alexa Fluor® 488 Conjugate) (3939, Cell Signaling) and Phospho-STAT3 (Tyr705) (D3A7) XP™ Rabbit mAb 1:200, (Alexa Fluor® 647 Conjugate) (4324, Cell Signaling). Incubate the antibodies for 1 h in dark at RT, then wash cells 2× and read on Cytometer Macsquant (Miltenyi Biotec). Gate the data on CD4+ (lymphocytes) and CD4Low CD33Hi (monocytes), to measure the fluorescence intensity from cells expressing pSTAT3 and pSTAT5, respectively. Analyze the data using FlowJo v 10 and then normalize the median of fluorescence versus maximum and minimum signal to determine the IC50s. Use Graph Pad Prism 5™ to represent the dose response curves.

[3] = molecular target: JAK2 (Rattus norvegicus (Rat), UniProt Q62689); assay: Rat PK/PD assay: rat whole blood ex vivo JAK2 activity (pSTAT5); format: in vivo; conditions: 30 mpk oral
Sequence of JAK2 (Rattus norvegicus (Rat), UniProt Q62689) (Q62689 whole entry): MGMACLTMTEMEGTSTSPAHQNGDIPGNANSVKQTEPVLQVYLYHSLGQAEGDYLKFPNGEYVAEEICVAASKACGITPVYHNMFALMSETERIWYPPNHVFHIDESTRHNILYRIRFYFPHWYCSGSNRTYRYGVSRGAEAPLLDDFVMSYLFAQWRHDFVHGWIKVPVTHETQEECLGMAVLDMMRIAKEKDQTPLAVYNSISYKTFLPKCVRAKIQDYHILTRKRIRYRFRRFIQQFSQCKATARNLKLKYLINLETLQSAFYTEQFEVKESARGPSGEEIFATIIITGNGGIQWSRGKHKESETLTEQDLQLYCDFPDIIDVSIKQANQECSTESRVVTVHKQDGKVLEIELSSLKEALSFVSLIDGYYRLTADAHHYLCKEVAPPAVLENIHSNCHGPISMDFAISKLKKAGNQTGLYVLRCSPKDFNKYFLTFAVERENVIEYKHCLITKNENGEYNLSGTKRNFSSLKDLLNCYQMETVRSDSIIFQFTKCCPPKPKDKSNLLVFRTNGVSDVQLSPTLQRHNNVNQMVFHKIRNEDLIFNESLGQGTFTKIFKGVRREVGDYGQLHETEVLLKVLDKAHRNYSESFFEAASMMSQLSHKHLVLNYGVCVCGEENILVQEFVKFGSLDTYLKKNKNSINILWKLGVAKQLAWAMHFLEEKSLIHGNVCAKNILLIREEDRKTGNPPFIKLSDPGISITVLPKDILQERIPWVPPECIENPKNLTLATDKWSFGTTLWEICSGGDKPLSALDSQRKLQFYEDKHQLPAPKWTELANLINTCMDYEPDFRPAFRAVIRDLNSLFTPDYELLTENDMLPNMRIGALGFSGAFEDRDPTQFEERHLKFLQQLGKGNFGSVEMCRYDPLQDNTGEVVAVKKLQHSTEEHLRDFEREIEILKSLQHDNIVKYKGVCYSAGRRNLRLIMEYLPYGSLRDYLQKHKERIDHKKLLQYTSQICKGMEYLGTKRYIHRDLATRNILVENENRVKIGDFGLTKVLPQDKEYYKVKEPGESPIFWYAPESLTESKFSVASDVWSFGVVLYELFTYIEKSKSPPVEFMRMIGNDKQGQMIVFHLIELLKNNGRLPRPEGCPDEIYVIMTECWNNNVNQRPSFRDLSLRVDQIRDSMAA
Description: Male Wistar rats, 265-285 grams (Charles River) were used for oral gavage dosing. Dose the animals (Oral gavage) at 1.82 mL/kg (0.5 mL per 275 grams). Formulate the compounds in 1% HEC vehicle containing 0.25% Tween 80 and 0.05% antifoam with 1.1 molar equivalent of methanesulfonic acid to form an in situ salt. Formulate compounds once per week, and store at 4° C. At various time points, obtain rat whole blood via tail vain bleeding in Multivette 600 μl EDTA blood collection tubes (cat#151671100PK100, Sarstedt Inc) and use for ex vivo JAK1 and JAK2 assay. Aliquot 100 ul of blood from each rat into a 96-well round bottom plate. Stimulate whole blood by recombinant IL-6 ([…], and recombinant mouse GM-CSF (cat#415-ML, lot#, R&D) for 12 min at rt. After cytokine stimulation, add whole blood into Lyse/fix (cat#558049, lot#, BD) in minitube rack; mix well 5×. Incubate 10 min at rt. Spin minitube rack at 600 g for 4 min. Aspirate with 12-channel manifold. Transfer contents of minitube rack to 96 well round-bottom plates. Spin down the cells at 3000 rpm for 1 min and discard the supernatant. Mix the cells in the well with 100 ul ice-cold MeOH and incubated on ice for 30 min. Add 150 ul PBS+2% FCS into each well and spin down at 3000 rpm, 2 min. Wash cells with 2× of 250 ul PBS+2% FCS. For cell surface and intracellular staining, mix all antibodies and add into each well and incubate 1 hr at rt in dark. The antibodies used for staining are as following: pSTAT3, Alexa Fluor 647 (cat#4324s, lot, Cell Signaling); pSTAT5, Alexa Fluor 488 (cat#3939s, lot#, Cell Signaling), anti-rat CD4, V450 (cat#561579, lot#. BD); anti-rat CD11b, Percp eFluor710 (cat#12-0110-82, lot#, eBioscience) After staining cells with Abs, wash the plates twice with PBS+2% FCS and finally re-suspend in the same 150 ul of solution. Assess cell viability by Viability Dye 780 (cat#65-0865-14, lot#, eBioscience). Perform the cytometry assay using FORTESSA.

Sequence of JAK1 (P23458 whole entry): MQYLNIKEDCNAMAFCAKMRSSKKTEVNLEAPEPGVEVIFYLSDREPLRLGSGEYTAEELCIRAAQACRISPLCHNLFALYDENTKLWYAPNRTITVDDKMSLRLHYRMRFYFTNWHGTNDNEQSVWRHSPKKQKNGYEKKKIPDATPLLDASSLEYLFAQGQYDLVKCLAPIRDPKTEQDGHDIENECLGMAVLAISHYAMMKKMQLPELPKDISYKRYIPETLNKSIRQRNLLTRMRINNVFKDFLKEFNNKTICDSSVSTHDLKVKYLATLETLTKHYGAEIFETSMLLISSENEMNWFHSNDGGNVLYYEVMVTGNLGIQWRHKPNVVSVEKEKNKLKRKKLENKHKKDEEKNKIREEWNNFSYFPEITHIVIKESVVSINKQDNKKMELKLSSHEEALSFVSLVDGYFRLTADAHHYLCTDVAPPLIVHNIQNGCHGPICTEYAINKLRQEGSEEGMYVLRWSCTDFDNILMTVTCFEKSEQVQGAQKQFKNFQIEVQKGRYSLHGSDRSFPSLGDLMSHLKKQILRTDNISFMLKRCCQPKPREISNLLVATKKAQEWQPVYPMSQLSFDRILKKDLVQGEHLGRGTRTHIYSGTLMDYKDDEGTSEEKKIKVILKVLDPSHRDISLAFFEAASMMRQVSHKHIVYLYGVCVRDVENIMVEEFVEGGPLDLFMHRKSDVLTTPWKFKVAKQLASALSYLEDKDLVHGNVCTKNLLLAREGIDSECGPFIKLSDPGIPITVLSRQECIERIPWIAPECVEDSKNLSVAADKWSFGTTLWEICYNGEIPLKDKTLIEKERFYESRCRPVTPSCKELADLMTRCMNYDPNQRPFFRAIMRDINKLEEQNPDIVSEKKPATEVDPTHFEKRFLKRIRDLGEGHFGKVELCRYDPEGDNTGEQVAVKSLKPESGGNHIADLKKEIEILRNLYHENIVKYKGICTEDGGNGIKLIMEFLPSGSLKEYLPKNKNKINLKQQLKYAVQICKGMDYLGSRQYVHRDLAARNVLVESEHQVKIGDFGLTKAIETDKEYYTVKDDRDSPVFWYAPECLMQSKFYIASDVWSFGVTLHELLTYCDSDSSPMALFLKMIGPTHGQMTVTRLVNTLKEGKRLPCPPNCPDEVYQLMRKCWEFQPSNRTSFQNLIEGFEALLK

**Q.** What does the source list for `COc1cc(Nc2cc(O[C@H]3CC[C@@H](NC[C@@H](O)C(F)(F)F)CC3)cc3c2ncn3C)nn1C` [Example 6, (2R)-1,1,1-Trifluoro-3-{[cis-4-({4-[(5-methoxy-1-methyl-1H-pyrazol-3-yl)amino]-1-methyl-1H-benzimidazol-6-yl}oxy)cyclohexyl]amino}propan-2-ol]?
**A.** IC50 [1]: 0.000168 ± 9e-05 µM; IC50 [2]: 20.3 ± 6.3 µM; inhibition at 30 mg/kg ([3]; 2 hr post dosing, read-out: JAK2 inhibition 2 hr post dosing): 17.7%; inhibition at 30 mg/kg ([3]; 7 hr post dosing, read-out: JAK2 inhibition 7 hr post dosing): 17.4%
